# Assay results taken from patent publication US20080072640A1, “Insecticidal Fertilizer Solids and Method of Preparation” (priority 2006, published 2008).
# Experiment: Solubility of imidacloprid in organic solvents
# Type: physicochemical
# Excerpt: U.S. Pat. No. 5,783,203 mentions acetone as a solvent for imidacloprid. […] Using a 6 wt % solution imidacloprid in acetone would mean applying 1.67 wt % of the solution on the fertilizer based on the combined weight of the fertilizer and the solution to achieve a product with 0.10 wt % imidacloprid. This would be very difficult to achieve a dry product. Fertilizer products with 0.2 wt % and 0.5 wt % imidacloprid would require 3.33 wt % and 8.33 wt % respectively of the imidacloprid solution absorbed onto the fertilizer; concentrations which are not likely feasible in acetone. In addition, acetone is highly flammable which would make processing very difficult and expensive.
# Preferably, the solvent system for use in the present invention consists essentially of either N-methyl-2-pyrrolidone or DMSO. […] Amine-stabilized or caustic-stabilized N-vinyl-pyrrolidone can form a solution with imidacloprid in an amount of about 15 wt % at 25° C. […] The solvent system can consist essentially of N-methyl-2-pyrrolidone, DMSO or a mixture of either N-methyl-2-pyrrolidone or DMSO with one or more co-solvents.
# An imidacloprid solution was prepared by dissolving imidacloprid in dimethyl sulfoxide (DMSO). […] The resulting solution can be sprayed onto a particulate fertilizer in an amount to provide a dry particulate composition containing about 0.1 wt % imidacloprid.
# The solubility of imidacloprid TGAI in N-methyl-2-pyrrolidone (NMP) was investigated. NMP has a favorable flash point of 187° F. (closed cup), mild odor, and is slow to volatilize, which are all very favorable properties. […] A 30 wt % solution can easily be prepared to spray onto fertilizer solids. Spraying a 0.50 wt % solution on fertilizer would achieve 0.15 wt % active ingredient. Spraying a 0.67 wt % solution and 1.67% wt % solution would achieve 0.20 wt % and 0.50 wt % active ingredient, respectively. These are highly plausible concentrations for use.
smiles,measurement,setting,value
"O=[N+]([O-])NC1=NCCN1Cc1ccc(Cl)nc1 [imidacloprid, 1-((6-chloro-3-pyridinyl)methyl)-N-nitro-2-imidazolidinimine]",solubility of imidacloprid in NMP,"solvent N-methyl-2-pyrrolidone (NMP), room temperature",~35 wt %
same,solubility of imidacloprid in N-methyl-2-pyrrolidone,"solvent N-methyl-2-pyrrolidone, 25° C.",about 32 wt %
same,solubility of imidacloprid in acetone,solvent acetone,less than 7 wt %
same,solubility of imidacloprid in N-vinyl-pyrrolidone,"solvent amine-stabilized or caustic-stabilized N-vinyl-pyrrolidone, 25° C.",about 15 wt %
same,solubility of imidacloprid in DMSO,"solvent dimethyl sulfoxide, room temperature of about 23° C.",about 32 wt %
